In US6498179B1, “Oxazole derivatives, their production and use” (Takeda Chemical Industries, Ltd., priority 1996, dated 2002):
Read-outs that look alike come from different tables or passages of the source.

How the values were obtained:
KKA^y mice = assay: Test for blood sugar depression in mice; format: in vivo; conditions: Mus musculus, fasted male KKA^y mice, oral 30 mg/kg, compared with control group
Description: After being fasted for 20 hours, 9- to 12-week-old, male KKA^y mice (five mice in each group) were orally given the test compound at a dose of 30 mg/kg/10 ml through a stomach tube. Control mice were orally given 5% gum arabic solution. Blood samples (70 μl) were obtained from orbital venous plexus through capillary tube before and 60 and 120 minutes after the administration of the test compound. Blood glucose was determined according to a glucose oxidase method using a commercial kit (Iatrochem, GIU(A), Iatron Labs. Inc.). Blood glucose level at 60 or 120 minutes of the test groups was compared with that of control group, and was shown as blood glucose depression (%) (Table 1).

MIN6 cells = assay: Insulinotropic effect on MIN6 cells; format: cell-based, mouse; conditions: compound 10 μM, 12.5 mM glucose, 2 hours, percentage of control
Description: MIN6 cells established from mouse beta cell tumor were cultured in DMEM supplemented with 15% fetal bovine serum on 12-well plate at 37° C. in 5% CO2, and were used at the stage of subconfluency. Cells were washed twice with PBS and incubated in Krebs-Ringer HEPES(KRH) containing with 0.1 mM glucose for 30 minutes. Then they were incubated in KRH containing with 12.5 mM glucose and 0.1% DMSO (control) or compound (10 μM) for 2 hours. Medium was collected and insulin concentration was measured using a commercial radioimmunoassay kit (Amarsham Inc.). The plate was washed once with PBS and cellular protein content was determined by the method of Lowrey et al. (J. Biol. Chem. 193, 265-275, 1951). Insulinotropic activity of the compound was indicated as percentage of control (Table 2).

| melting point | Compound | inhibition in vivo at 30 mg/kg (KKA^y mice; 1 h, 60 minutes after administration, read-out: Degree of Blood Glucose Depression (%) After 60 minutes) | inhibition in vivo at 30 mg/kg (KKA^y mice; 2 h, 120 minutes after administration, read-out: Degree of Blood Glucose Depression (%) After 120 minutes) | Insulin secretion-promoting effect (%) (MIN6 cells) |
| --- | --- | --- | --- | --- |
|  | Cc1nccn1-c1nc(-c2ccc(Cl)cc2)c(CCCO)o1 [Example 36, 4-(4-chlorophenyl)-2-(2-methyl-1-imidazolyl)-5-oxazolepropanol] | 23% | 18% | 272% |
| 110 to 111 °C | Cc1nccn1-c1nc(-c2ccc(Cl)cc2)c(CCCCO)o1 [Example 65, 4-(4-chlorophenyl)-2-(2-methyl-1-imidazolyl)-5-oxazolebutanol] |  |  | 397% |
| 133 to 134 °C | Cc1nccn1-c1nc(-c2ccc(Cl)cc2)c(CCCn2ccnc2)o1 [Example 72, 4-(4-chlorophenyl)-5-[3-(1-imidazolyl)propyl]-2-(2-methyl-1-imidazolyl)oxazole] |  |  | 303% |
| 94 to 95 °C | Cc1nc(-c2nc(-c3ccc(Cl)cc3)c(CCCCCO)o2)c[nH]1 [Example 83, 4-(4-chlorophenyl)-2-(2-methyl-imidazolyl)-5-oxazolepentanol] |  |  | 359% |
| 84 to 85 °C | Cc1nccn1-c1nc(-c2ccc(Cl)cc2)c(CCCCn2ccnc2)o1 [Example 89, 4-(4-chlorophenyl)-5-[4-(1-imidazolyl)butyl]-2-(2-methyl-1-imidazolyl)oxazole] |  |  | 385% |
